Reference: patent publication US20040044079A1, “Methods and compositions for weight control” (The IAMS Company, priority 2002, published 2004)

Key:
[1] = incorporated into a high fat diet fed to mice; U.S. Pat. No. 6,054,480; cited from earlier work
[2] = Whole body composition of overweight dogs fed treatment diets for 12 weeks; assay type: in vivo; conditions: for Area: absolute data; for Area (relative data) / BMD (relative data) / Lean + BMC (relative data) / Total (relative data) / BMC (relative data) / Fat (relative data) / Lean (relative data): relative change, beginning to end of phase II
Method: In phase I of the study, 80 beagle and mongrel dogs were fed a weight gain diet (36% protein, 26% fat by dry weight). The dogs were allowed to eat as much as they wished for 16 weeks. Weekly weight gain and daily food intake were measured for each dog. In phase II, the 20 dogs that were the poorest weight […] eliminated from the study. The 60 remaining dogs were randomly assigned to one of the four treatment groups. The treatment diets were the following: Control. Similar to EUKANUBA REDUCED FAT dry dog food, consisting of approximately 19% protein and 10% fat on a dry weight basis, with an additional 3% poultry fat to achieve a total fat content of 13%. Free fatty acid mix. Identical to the control diet, but with 3% free fatty acids in place of the 3% poultry fat. The free fatty acid was technical grade linoleic acid. Ethyl esters of fatty acid mix. Identical to control diet, but with 3% ethyl ester of fatty acid in place of the 3% poultry fat. The ethyl ester used was ethyl oleate. Lotus leaf extract. Identical to the control, but with an additional 0.3% extract of lotus leaf. Lotus leaf extract has been used in China to promote human weight loss. It is purported to help induce a sense of satiety and reduce food consumption. The dogs were given the treatment diets for 12 weeks. During this time the dogs were allowed to eat as much as they wished. Daily food intake and weekly body weight were measured. Body composition measurements were also taken, including fat, lean body mass, bone mineral content (BMC), and bone mineral density (BMD). These measurements help to determine the cause of weight loss-for instance, whether it is due to an increase in satiety and therefore reduced food intake, or an increase in thermogenesis. The measurements also allow a determination of whether weight loss results from a reduction in lean body mass or a loss of fat, or a combination of both.

[3] = Average body condition scores of dogs on treatment diets; assay type: in vivo; conditions: for Average Body Condition Score: score 1 thin to 5 obese (Table 1); for Average Body Condition Score % Change: Day 0 to Day 84
Method: (§1) In phase I of the study, 80 beagle and mongrel dogs were fed a weight gain diet (36% protein, 26% fat by dry weight). The dogs were allowed to eat as much as they wished for 16 weeks. Weekly weight gain and daily food intake were measured for each dog. In phase II, the 20 dogs that were the poorest weight […] eliminated from the study. The 60 remaining dogs were randomly assigned to one of the four treatment groups. The treatment diets were the following: The dogs were given the treatment diets for 12 weeks. During this time the dogs were allowed to eat as much as they wished. Daily food intake and weekly body weight were measured. Body composition measurements were also taken, including fat, lean body mass, bone mineral content (BMC), and bone mineral density (BMD). These measurements help to determine the cause of weight loss-for instance, whether it is due to an increase in satiety and therefore reduced food intake, or an increase in thermogenesis. The measurements also allow a determination of whether weight loss results from a reduction in lean body mass or a loss of fat, or a combination of both. [table]

[4] = Daily food intake of dogs on treatment diets; assay type: in vivo; conditions: experimental period of phase II, compared among the four diets, FIGS. 1 and 2
Method: as §1, with “both.” for “both. [table]”

[5] = Weekly body weight / weight loss of dogs on treatment diets; assay type: in vivo; conditions: for weight loss: phase II, compared with control diet, FIGS. 3 and 4
Method: as §1, with “both.” for “both. [table]”

[6] = second Lean column (body share)

With `CCCCCCCCCCCCCC(=O)O` [myristic acid] as the compound, how does the “effect on body weight” value [1] read?
Its value is “caused weight loss or reduction of weight gain in the mice”.

What does the source list for `CCCCCCCC/C=C\CCCCCCCC(=O)OCC` [T × 2, ethyl oleate]?
BMC (bone mineral content) ([2]; Day 0, absolute data): 253.62 g; Fat ([2]; Day 0, absolute data): 5956.12 g; Lean ([2]; Day 0, absolute data): 9667.31 g; Lean + BMC ([2]; Day 0, absolute data): 9920 g; Total ([2]; Day 0, absolute data): 15877.02 g; BMC ([2]; Day 0, share of whole body): 1.61%; Fat ([2]; Day 0, share of whole body): 36.77%; Lean ([2]; Day 0, share of whole body): 61.63%; Area ([2]; Day 0, start of phase II): 395.54 cm^2; BMC (bone mineral content) ([2]; Day 84, absolute data): 229.74 g; Fat ([2]; Day 84, absolute data): 4723.12 g; Lean ([2]; Day 84, absolute data): 9837.15 g; Lean + BMC ([2]; Day 84, absolute data): 10066.89 g; Total ([2]; Day 84, absolute data): 14790.01 g; Area ([2]; Day 84, end of phase II): 362.26 cm^2; BMC ([2]; Day 84, share of whole body): 1.57%; Fat ([2]; Day 84, share of whole body): 31.44%; Lean ([2]; Day 84, share of whole body): 66.99%; Area (relative data) [2]: −7.99%; BMD (relative data) [2]: −0.58%; Lean + BMC (relative data) [2]: −4.69%; Total (relative data) [2]: −6.56%; BMC (relative data) ([2]; first BMC column): −8.58%; Fat (relative data) ([2]; first Fat column (mass)): −18.59%; Lean (relative data) ([2]; first Lean column (mass)): 2.06%; BMC (relative data) ([2]; second BMC column (body share)): −2.39%; Fat (relative data) ([2]; second Fat column (body share)): −13.43%; Lean (relative data) [2, 6]: 9.61%; Average Body Condition Score ([3]; Day 0): 4.0; Average Body Condition Score % Change [3]: −7.5%; Average Body Condition Score ([3]; Day 84): 3.7; food intake [4]: ate intermediate amounts, slightly more than the control diet; average weight ([5]; 10th-12th weeks of phase II, compared with control group): average weight increased above that of the control group; weight loss [5]: lost more weight than the control group for the first 9 weeks of phase II

With `CCCCC/C=C\C/C=C\CCCCCCCC(=O)O` [T × 1, linoleic acid] as the compound, how does the “BMC (bone mineral content)” value ([2]; Day 0, absolute data) read?
Its value is 263.95 g.

And the Fat ([2]; Day 0, absolute data)?
The Fat was 5772.09 g.

And the Lean ([2]; Day 0, absolute data)?
The Lean was 9840.21 g.

And the “Lean + BMC” value ([2]; Day 0, absolute data)?
Its value is 10104.15 g.

And the Total ([2]; Day 0, absolute data)?
Its Total is 15876.27 g.

What about the BMC ([2]; Day 0, share of whole body) of the same compound?
The BMC was 1.67%.

What about the Fat ([2]; Day 0, share of whole body) of the same compound?
Its Fat is 35.74%.

What about the Lean ([2]; Day 0, share of whole body) of the same compound?
Its Lean is 62.58%.

What about the Area ([2]; Day 0, start of phase II) of the same compound?
Its Area is 402.07 cm^2.

What about the “BMC (bone mineral content)” value ([2]; Day 84, absolute data) of the same compound?
Its value is 257.27 g.

And the Fat ([2]; Day 84, absolute data)?
Its Fat is 4109.94 g.

What about the Lean ([2]; Day 84, absolute data) of the same compound?
Its Lean is 9607.27 g.

And the “Lean + BMC” value ([2]; Day 84, absolute data)?
Its value is 9864.54 g.

And the Total ([2]; Day 84, absolute data)?
The Total was 13974.49 g.

And the Area ([2]; Day 84, end of phase II)?
The Area was 387.39 cm^2.

And the BMC ([2]; Day 84, share of whole body)?
Its BMC is 1.84%.

And the Fat ([2]; Day 84, share of whole body)?
The Fat was 29.22%.

And the Lean ([2]; Day 84, share of whole body)?
Its Lean is 68.94%.

And the “Area (relative data)” value [2]?
The value was −3.98%.

And the “BMD (relative data)” value [2]?
Its value is 1.15%.

And the “Lean + BMC (relative data)” value [2]?
Its value is −2.38%.

What about the “Total (relative data)” value [2] of the same compound?
The value was −11.75%.

What about the “BMC (relative data)” value ([2]; first BMC column) of the same compound?
The value was −3.06%.

And the “Fat (relative data)” value ([2]; first Fat column (mass))?
The value was −28.22%.

What about the “Lean (relative data)” value ([2]; first Lean column (mass)) of the same compound?
The value was −2.34%.

What about the “BMC (relative data)” value ([2]; second BMC column (body share)) of the same compound?
Its value is 10.16%.

What about the “Fat (relative data)” value ([2]; second Fat column (body share)) of the same compound?
The value was −18.59%.

And the “Lean (relative data)” value [2, 6]?
Its value is 10.84%.

And the “Average Body Condition Score” value ([3]; Day 0)?
Its value is 4.1.

And the “Average Body Condition Score % Change” value [3]?
Its value is −19.5%.

And the “Average Body Condition Score” value ([3]; Day 84)?
The value was 3.3.

And the food intake [4]?
The food intake was “ate intermediate amounts, slightly more than the control diet”.

And the weight loss [5]?
Its weight loss is “generally greatest”.
